{
  "source": "patent US20100068200A1",
  "about": "“Methods and Compositions for Inhibiting Atherosclerosis and Vascular Inflammation” (THE UNIVERSITY OF CONNECTICUT, priority 2008, published 2010)",
  "key": {"S1p2r−/− macrophage": {"tested_on": "S1p2r−/− macrophage", "assay": "reversal of caspase-11 null phenotype of S1p2r−/− macrophage", "type": "cell-based, mouse", "conditions": "MG132 1-20 μM, chloroquine 10-100 μM, data not shown"}, "caspase-11": {"tested_on": "caspase-11", "assay": "caspase-11 protein expression in elicited peritoneal macrophages (western blot)", "type": "cell-based", "conditions": "mouse elicited peritoneal macrophages; oxLDL 50 μg/ml or TNFα 50 ng/ml, 8 hrs", "method": "Isolation of Thioglycolate-Elicited Peritoneal Cells. Mice were injected i.p. with 2 ml of 3% thioglycolate. Four days later, the peritoneal fluid was collected, and cells monolayer was prepared by addition of 1 ml/well (2×10^6 macrophages) into 35 mm culture dishes. Macrophage adhesion was allowed to proceed for 4 h at 37° C. in a 5% CO2 atmosphere.\nImmunoprecipitation experiments. Cell or spleen extracts were prepared with RIPA buffer (25 mM Tris-HCl pH 7.6, 150 mM NaCl, 1% NP-40, 1% sodium deoxycholate, 0.1% SDS). Caspase-1 was immunoprecipitated with polyclonal rabbit anti-caspase-1 antibody (Santa Cruz) crosslinked to protein A beads and Caspase-11 was immunoprecipitated with monoclonal rat anti-caspase-11 antibody, crosslinked to protein G beads. For western blot analysis, BMDM were treated with LPS (1 μg/ml, E. coli serotype 026:B6; Sigma). Aortas or cells were solubilized in RIPA buffer or 2×SDS-sample buffer (20 mM DTT, 6% SDS, 0.25 M Tris pH 6.8, 10% Glycerol, bromophenyl blue, protease inhibitors, 1 mM sodium orthovanadate and 1 mM NaF), sonicated, boiled and separated by SDS-PAGE gel electrophoresis. […] Cells were treated as indicated with 1 μg/ml LPS (Sigma) and 50 ng/ml TNFα (Sigma) Immunoreactive bands density was quantified with Image Pro Plus Analysis Software (Media Cybernetics)."}},
  "note": "Where a SMILES comes first, the peptide text is derived from it. The star is where a group is joined. Cbz = O=C(OCc1ccccc1)*",
  "data": [
    {"molecule": "CC(C)C[C@@H](C=O)NC(=O)[C@H](CC(C)C)NC(=O)[C@H](CC(C)C)NC(=O)OCc1ccccc1", "note": "[MG132] (Cbz-Leu-Leu-Leu-aldehyde)", "values": [
      {"measurement": "reversal of caspase-11 null phenotype", "setting": "S1p2r−/− macrophage", "result": "could not reverse"}
    ]},
    {"molecule": "TNFα", "values": [
      {"measurement": "caspase-11 protein expression after stimulus", "setting": "caspase-11", "result": "upregulates"}
    ]}
  ]
}
